One may read the pIC50 as the negative decadic logarithm of the IC50, by convention in mol/L. Read a low pIC50 as a large IC50.

Consider ten compounds from paper PMC6395927, “Rufomycin Targets ClpC1 Proteolysis in Mycobacterium tuberculosis and M. abscessus” (Antimicrobial Agents and Chemotherapy, 2019).

Test [1] deals with M. avium (ATCC 15769). Put plainly: microbe, parasite or virus in culture. It counts as cell-based. Particulars: Mycobacterium avium, ATCC15769; M. avium; read-out: MIC.
Test [2] has as its system Vero cell (ATCC CRL-81). Put plainly: cells. Particulars: Chlorocebus sabaeus, 72 h. It counts as cell-based.
In test [3] the test system is M. chelonae (ATCC 35752). Put plainly: microbe, parasite or virus in culture. The format is cell-based, Mycobacterium chelonae. Particulars: Mycobacteroides chelonae, ATCC35752; M. chelonae; read-out: MIC.
The test system of test [4] is M. abscessus (ATCC 19977). Put plainly: microbe, parasite or virus in culture. The format is cell-based, Mycobacterium abscessus. Particulars: Mycobacteroides abscessus, ATCC19977, M. abscessus; read-out: MIC.
In test [5] the test system is M. kansasii (ATCC 12478). Description: microbe, parasite or virus in culture. The format is cell-based. Particulars: Mycobacterium kansasii, ATCC12478; M. kansasii; read-out: MIC.
The subject of test [6] is M. tuberculosis strain H37Rv (ATCC 27294). Put plainly: microbe, parasite or virus in culture. It counts as cell-based, Mycobacterium tuberculosis. Particulars: Mycobacterium tuberculosis.
For test [7], the system named is M. marinum (ATCC 927). Description: microbe, parasite or virus in culture. Particulars: Mycobacterium marinum, ATCC927; M. marinum; read-out: MIC. It counts as cell-based.
Test [8] concerns M. bovis (ATCC 35734). Put plainly: microbe, parasite or virus in culture. The format is cell-based. Particulars: Mycobacterium tuberculosis variant bovis, ATCC35734.
Test [9] has as its system M. smegmatis (ATCC 700084). Put plainly: microbe, parasite or virus in culture. The format is cell-based. Particulars: Mycolicibacterium smegmatis, ATCC700084; M. smegmatis; read-out: MIC.
The test system of test [10] is Escherichia coli (ATCC 25922). Description: MIC against nonmycobacteria (OD570). The format is cell-based. Particulars: ATCC25922, E. coli. The source says: (§1) Standard compounds used were ampicillin (AMP) and gentamicin (GEN). […] Amphotericin B (AmphB) and ketoconazole (KETO) were used as standard compounds.
In test [11] the test system is Staphylococcus aureus (ATCC 29213). Description: MIC against nonmycobacteria (OD570). The format is cell-based. Particulars: ATCC29213, S. aureus.
From the text: as §1

Test [12] concerns Candida albicans (ATCC 10231). Description: MIC against nonmycobacteria (OD570). The format is cell-based. Particulars: ATCC10231, C. albicans.
From the text: as §1

For test [13], the system named is J774A.1 macrophage (ATCC TIB-67). Put plainly: Cytotoxicity in mammalian cells (resazurin). It counts as cell-based, murine. Particulars: Mus musculus, J774.A1; J774, 72 h. A general note: Alamar Blue is a resazurin reagent that responds to reducing activity.
In test [14] the test system is M. tuberculosis 5 global clade representatives. Put plainly: microbe, parasite or virus in culture. The format is cell-based. Particulars: Mycobacterium tuberculosis, read-out: MICs.
The mark [15] stands for this setting: read-out: MIC against M. tuberculosis.

The structures appear in SMILES notation. pIC50: −log10 of the molar value. Converted amounts (≈) assume the structure as drawn. Where two headings read alike, the source gives them in different places. Numbered stars: 1 amine (or outer) side, 2 acyl side, 3 side chain; on linkers, the order of the positions; unused ones are H or OH. Square brackets hold non-standard residues; d marks the D form. Peptide text beside a SMILES is read from it. ξ: configuration not given here. X4 = CC(C)(C1CO1)n1cc(C[C@H](N[*:1])C(=O)[*:2])c2ccccc21; Tyr(3-NO2) = N[C@@H](Cc1ccc(O)c([N+](=O)[O-])c1)C(=O)O; Gly(E-crotyl) = C/C=C/C[C@H](N)C(=O)O; ξNMeL = CNC(CC(C)C)C(=O)O Bounds are passed on as bounds.

On to `CO[C@H](c1ccccc1)[C@@H]1NC(=O)[C@H](C)NC(=O)[C@H](C[C@@H](C)CO)N(C)C(=O)[C@H]([C@H](O)c2cn(C(C)(C)[C@@H]3CO3)c3ccccc23)NC(=O)[C@H]([C@H](C)C=C(C)C)NC(=O)[C@H](CC(C)C)N(C)C(=O)[C@H](C(C)C)NC1=O` (stereo in doubt) [CYMA, cyclomarin A], for which the MIC is 4.85 µM (≈ 5.06 µg/mL) in test [1]; above 5 µM in [3]; above 5 µM in test [4]; 1.11 µM (≈ 1.16 µg/mL) in test [5]; 0.094 µM (≈ 0.0981 µg/mL) in [6]; 0.58 µM (≈ 0.605 µg/mL) in test [7]. Further, the MIC is below 0.02 µM in test [8]; 1.6 µM (≈ 1.67 µg/mL) in test [9]; above 10 µM in test [10]; above 10 µM in test [11]; above 10 µM in [12]; 0.012 to 0.079 µM (≈ 0.0125 to 0.0824 µg/mL) in test [14]. In addition, the values for the pIC50 in test [2] and in [13] were below 4.30 and 4.72, respectively.
As to `CC1(C)S[C@@H]2[C@H](NC(=O)[C@H](N)c3ccccc3)C(=O)N2[C@H]1C(=O)O` [AMP, ampicillin], the values for the MIC in [10] and in test [11] were 16 µM (≈ 5.59 µg/mL) and 6.1 µM (≈ 2.13 µg/mL), respectively.
`C[C@@H]1[C@H](O)[C@@H](C)/C=C/C=C/C=C/C=C/C=C/C=C/C=C/[C@H](O[C@@H]2O[C@H](C)[C@@H](O)[C@H](N)[C@@H]2O)C[C@@H]2O[C@](O)(C[C@@H](O)C[C@@H](O)[C@H](O)CC[C@@H](O)C[C@@H](O)CC(=O)O[C@H]1C)C[C@H](O)[C@H]2C(=O)O` [AmphB, amphotericin B] displayed an MIC in [12] of 2.6 µM (≈ 2.4 µg/mL).
`COc1nc2ccc(Br)cc2cc1[C@@H](c1ccccc1)[C@@](O)(CCN(C)C)c1cccc2ccccc12` [BDQ, bedaquiline]: the MIC in [1] was determined as 0.049 µM (≈ 0.0272 µg/mL); in test [3], 0.46 µM (≈ 0.256 µg/mL); in test [4], 0.96 µM (≈ 0.533 µg/mL); in [5], 0.029 µM (≈ 0.0161 µg/mL); in test [6], 0.13 µM (≈ 0.0722 µg/mL); in [7], 0.29 µM (≈ 0.161 µg/mL). Also, the MIC in test [8] is 0.1 µM (≈ 0.0556 µg/mL); in test [14], 0.017 to 0.11 µM (≈ 0.00944 to 0.0611 µg/mL). The pIC50 in [2] is 4.57; in [13], 4.70.
Take `CC(C)/N=c1\cc2n(-c3ccc(Cl)cc3)c3ccccc3nc-2cc1Nc1ccc(Cl)cc1` [CLO, clofazimine]: the MIC in [1] is below 0.2 µM; in test [3], 10 µM (≈ 4.73 µg/mL); in test [4], 9.23 µM (≈ 4.37 µg/mL); in [5], below 0.2 µM; in test [7], 0.34 µM (≈ 0.161 µg/mL); in [8] it was below 0.2 µM. In test [9], the MIC amounted to 2.39 µM (≈ 1.13 µg/mL).
On to `CNC(C)C1CCC(N)C(OC2C(N)CC(N)C(OC3OCC(C)(O)C(NC)C3O)C2O)O1` (stereo not drawn) [GEN, gentamicin], for which the MIC in [10] came out at 0.23 µM (≈ 0.11 µg/mL); in test [11], 0.33 µM (≈ 0.158 µg/mL).
In the case of `C=CC(C)(C)n1cc(C[C@@H]2NC(=O)[C@H](C/C=C/C)NC(=O)[C@H](CC(C)C)N3CC(C)CC(C3=O)N(C)C(=O)[C@H](C)NC(=O)[C@H](Cc3ccc(O)c([N+](=O)[O-])c3)NC(=O)[C@H](CC(C)C)N(C)C2=O)c2ccccc21` (stereo partly drawn) [III], the MIC in test [6] (setting [15]) turned out to be 1 µM (≈ 1.01 µg/mL).
Same read-out and setting: the same measure for `C/C=C/C[C@@H]1NC(=O)[C@H](CC(C)C)N2C(=O)C(C[C@@H](C)[C@H]2O)N(C)C(=O)[C@H](C)NC(=O)[C@H](Cc2ccc(O)c([N+](=O)[O-])c2)NC(=O)[C@H](CC(C)C)N(C)C(=O)[C@H](Cc2cn(C(C)(C)C3CO3)c3ccccc23)NC1=O` (stereo partly drawn) [II]: 0.05 µM (≈ 0.0521 µg/mL).
Consider `NNC(=O)c1ccncc1` [INH, isoniazid], for which the MIC in test [1] is above 8 µM; in test [3], above 8 µM; in [4], above 8 µM; in test [5] it was 3.84 µM (≈ 0.527 µg/mL); in [6], 0.23 µM (≈ 0.0315 µg/mL); in [7], above 8 µM. Also, the figures for the MIC in test [8], in test [9] and in [14] were 0.48 µM (≈ 0.0658 µg/mL), 360 µM (≈ 49.4 µg/mL) and 0.25 to 0.47 µM (≈ 0.0343 to 0.0645 µg/mL), respectively.
In the case of `C/C=C/C[C@@H]1NC(=O)[C@H](CC(C)C)NC(=O)C(CC(C)C)N(C)C(=O)[C@H](C)NC(=O)[C@H](Cc2ccc(O)c([N+](=O)[O-])c2)NC(=O)[C@H](CC(C)C)NC(=O)[C@H](Cc2cn(C(C)(C)C3CO3)c3ccccc23)NC1=O` (stereo partly drawn) [IV] (cyclo(A[ξNMeL]L[Gly(E-crotyl)][X4]L[Tyr(3-NO2)])), the MIC in [6] (setting [15]) came out at 0.58 µM (≈ 0.588 µg/mL).
